Results on 4 molecules are retold here after patent US11197863B2, “Inhibitors of polo-like kinase 4 (PLK4) for treating pediatric embryonal tumors” (ANN AND ROBERT H. LURIE CHILDREN'S HOSPITAL OF CHICAGO, priority 2017, dated 2021).

Read-outs that look alike come from different tables or passages of the source.

As usually defined, the IC50 is the concentration that inhibits the measured activity by half.

In one test the test system is MON cells. As to the kind of experiment: Combination therapy viability assay. Type of test: cell-based. The conditions noted are these: Homo sapiens, 72 h, read-out: IC50 of compound 2.
A further test has as its system BT-16 cells. Description: Combination therapy viability assay. The class given is cell-based. The conditions noted are these: Homo sapiens, BT-16, 72 h, read-out: IC50 of compound 2.
The test system of a further test is DAOY cells. As to the kind of experiment: Combination therapy viability assay. The conditions noted are these: Homo sapiens, 72 h.
Test [1] concerns rhabdoid mouse xenograft models. The conditions noted are these: in vivo; cited from earlier work.
The conditions of test [2]: children, single agent; cited from earlier work.
In test [3] the test system is rhabdoid tumor cell lines. The conditions noted are these: inhibition of ERBB2; cited from earlier work.
The mark [4] stands for this setting: combined with CFI-400945 (5 nM).
The mark [5] stands for this setting: combined with CFI-400945 (10 nM).
The mark [6] stands for this setting: read-out: IC50 of compound 2, DAOY, combined with CFI-400945 (5 nM).
Where [7] appears, read: read-out: IC50 of compound 2, DAOY, combined with CFI-400945 (10 nM).

On to `COc1cccc2c1C(=O)c1c(O)c3c(c(O)c1C2=O)C[C@@](O)(C(=O)CO)C[C@@H]3O[C@H]1C[C@H](N)[C@H](O)[C@H](C)O1` [Doxorubicin, doxorubicin], for which the 50% inhibitory concentration (IC50) with MON cells (setting [4]) is 74 nM; in the test with MON cells (setting [5]), 57 nM; with BT-16 cells (setting [4]), 566 nM; in the test with BT-16 cells (setting [5]) it was 576 nM; with DAOY cells (setting [6]), 168 nM; in the test with DAOY cells (setting [7]) it was 199 nM.

As for `COc1cc([C@@H]2c3cc4c(cc3[C@@H](O[C@@H]3O[C@@H]5CO[C@@H](C)O[C@H]5[C@H](O)[C@H]3O)[C@H]3COC(=O)[C@H]23)OCO4)cc(OC)c1O` [Etoposide, etoposide], the IC50 with MON cells (setting [4]) was 292 nM; in the test with MON cells (setting [5]), 266 nM; in the test with BT-16 cells (setting [4]) it was 593 nM; in the test with BT-16 cells (setting [5]) it was 6 nM; in the test with DAOY cells (setting [6]) it was 494 nM; in the test with DAOY cells (setting [7]) it was 800 nM.

`COc1cc(Nc2ncc3c(n2)-c2ccc(Cl)cc2C(c2c(F)cccc2OC)=NC3)ccc1C(=O)O` [alisertib]: the response rates entry in test [1] was “high response rates”. The clinical activity entry in test [2] is recorded as “active as a single agent”.

As to `CS(=O)(=O)CCNCc1ccc(-c2ccc3ncnc(Nc4ccc(OCc5cccc(F)c5)c(Cl)c4)c3c2)o1` [lapatinib], in test [3], the “cell migration and apoptosis” value is “significant impairment of cell migration and initiation of apoptosis”.
